Measured values reported in patent US20250320138A1 (priority 2022, published 2025).
Values joined by “and” are separate entries in the source; they are usually repeats but may differ in a detail not shown here. Equal values may be shown once.

Legend:
[1] = tested on: chlorine-resistant Methylobacterium strain; type: cell-based, Methylobacterium fujisawaense
[2] = tested on: chlorine-resistant Methylobacterium strain; type: cell-based, Methylobacterium fujisawaense; remark: listed apart in the source

O=[O+][O-] [ozone]
inner structure of cell body (electron microscope) [1]: an organization is packed inside the cell body similarly to the blank
bactericidal rate [2]: 0.0% and 9.4% and 2.1% and 5.0%
